For one data set, the target named is FAK kinase (Homo sapiens, UniProt Q05397). Put plainly: FAK kinase activity inhibition assay, method A (HTRF) and method B (Lantha screen). In kind it is biochemical. As for the experimental part:
The HTRF method was used to evaluate the inhibitory activity of the compounds against FAK kinase. […]. The reaction conditions were: FAK kinase at 0.1 ng/µL; ATP 10 µM; substrate concentration 1 µM. Compounds were serially diluted in DMSO and shaken on a shaker for 20 minutes. Prepare 2× kinase using 1× reaction buffer. Transfer 25 nL compound to a 384-well plate using Echo 655. Add 2.5 µL kinase per well. Seal the plate with sealing film, centrifuge at 1000 rpm for 60 seconds, and incubate at 25°C for 12 hours. Prepare 2× ATP/substrate mix using 1× enzyme reaction buffer and add 2.5 µL 2× ATP/substrate mix per well. Seal the plate with sealing film, centrifuge at 1000 rpm for 60 seconds, and incubate at 25°C for 50 minutes. Prepare 2×XL665 & antibody solution using HTRF detection buffer, and add 5 µL per well. Incubate at 25°C for 60 minutes. Read fluorescence at 620 nm (Cryptate) and 665 nm (XL665). Calculate the ratio per well (Ratio_665/620 nm). % Inhibition = 100% - [(Compound Ratio - Positive Control Ratio)/ (Negative Control Ratio - Positive Control Ratio)] × 100%. IC50 values (half-maximal inhibitory concentration) were calculated by nonlinear regression using GraphPad Prism 7.0. Y = Bottom + (Top - Bottom)/ (1 + 10^ ((LogIC50 - X) × Hill Slope)), where X is the log of compound concentration and Y is the % inhibition.
The Lantha screen assay was used to evaluate the FAK kinase inhibitory activity. Compounds were dissolved in 100% DMSO at 10 mM stock concentration. Prepare 1× kinase buffer (25 mM HEPES, pH 7.5, 0.01 mM Triton, 0.5 mM EGTA, 0.01% Brij-35). Dilute compounds in a gradient, and transfer 5 µL compound into the reaction plate. Prepare 2× kinase solution with 1× Kinase buffer. Add 5 µL kinase solution to compound and positive control wells, and 5 µL 1× Kinase buffer to negative control wells. Mix reaction plate by shaking. Prepare 4× ATP/Fluorescein-polyGT substrate mix with 1× Kinase buffer. Add 2.5 µL substrate solution to initiate the reaction. Shake and incubate at room temperature for 30 minutes. Prepare 2× detection reagent (2 nM antibody, 10 mM EDTA) and add 10 µL per well to stop the reaction. Briefly centrifuge, mix, and incubate for 60 minutes. Read fluorescence at 340 nm excitation and 520 nm/495 nm emission using EnVision. Collect data and calculate 520 nm/495 nm ratio. Calculate the inhibition percentage using the formula: % Inhibition = (Max - Sample Ratio)/(Max - Min) × 100, where min is the mean of negative control wells (no enzyme activity), and max is the mean of positive control wells (DMSO-inhibited conversion rate).Use XLFit Excel add-in version 5.4.0.8 to determine the IC50 values of each compound against the enzyme activity: Y = Bottom + (Top - Bottom)/(1 + (IC50/X)^HillSlope).
A general note: Time-resolved FRET reads energy transfer from a long-lived donor to a nearby acceptor.

Data set [1] in a line: Pharmacokinetic study in rats. The following applies: rat, plasma, po, 3 mg/kg.
Method: Pharmacokinetic parameters were calculated by statistical moment method using WinNonLin 8.0 software, mainly including Tmax, T1/2, Cmax and AUC0-24h.
Animals: Three male SD rats weighing 200-220 g were used. After purchase, they were housed in the laboratory animal center for 2 days before experiment. […] Blood samples were collected at scheduled time points after oral gavage.
Vehicle: 0.4% ethanol + 0.4% Tween 80 + 99.2% (0.5% methylcellulose M450). Preparation of oral gavage solution: The compound was accurately weighed and dissolved in vehicle by ultrasonication for 5 min at room temperature to prepare 0.3 mg/mL drug solution.
Single compound administration was also used to study pharmacokinetics in rats.
Blood sample collection: After oral gavage, blood samples were collected from orbital sinus at 0.25, 0.5, 1, 2, 4, 8, 10 and 24 h. 50 µL plasma was mixed with 200 µL acetonitrile (containing 2 ng/mL verapamil as internal standard). The mixture was vortexed for 3 min, then centrifuged at 20000 rcf for 10 min at 4 °C. The supernatant was analyzed by LC-MS/MS.
Standard curves were established by accurately weighing and preparing compounds at different concentrations for mass spectrometric quantification. Compound concentrations in plasma samples were determined based on standard curves to obtain concentration-time profiles. All measurement data were collected and processed by relevant software. Pharmacokinetic parameters (including Tmax, T1/2, Cmax and AUC0-24h) were calculated by statistical moment method.
The target of a further data set is ALK kinase (Homo sapiens, UniProt Q9UM73). Kind of data set: ALK kinase activity inhibition assay (HTRF). In kind it is biochemical. As for the experimental part: Measure compound inhibitory activity against ALK kinase using HTRF Assay.1× kinase reaction buffer was prepared. The kinase reaction conditions were as follows: kinase concentration at 0.04 ng/µL; ATP working concentration in substrate mixture solution at 2 µM; final substrate concentration at 1 µM. Compounds were serially diluted in DMSO and shaken on an orbital shaker for 20 minutes. 2× kinase solution was prepared using 1× kinase reaction buffer. 1 µL of compound solution was transferred to a 384-well plate. 2 µL of kinase solution was added to each well of the reaction plate. The plate was sealed with adhesive film, centrifuged at 1000 rpm for 60 seconds, and incubated at 25°C for 10 minutes. 2.5× ATP/substrate mixture was prepared using 1× kinase reaction buffer. 2 µL of 2.5× ATP/substrate mixture was added to the reaction plate. The plate was sealed with adhesive film, centrifuged at 1000 rpm for 60 seconds, and incubated at 25°C for 50 minutes. 4× Sa-XL 665 solution was prepared using HTRF detection buffer. 5 µL of Sa-XL 665 solution and 5 µL of TK-antibody-Cryptate solution were added to each well. The plate was centrifuged at 1000 rpm for 60 seconds and incubated at 25°C for 60 minutes. Fluorescence signals were measured at 615 nm (Cryptate) and 665 nm (XL665) using a BMG microplate reader. The ratio for each well was calculated as: Ratio_665/615nm. The inhibition percentage was calculated as follows: % inhibition = 100% - [(Compound Ratio - Positive Control Ratio)/(Negative Control Ratio - Positive Control Ratio)] × 100%. The IC50 values (half-maximal inhibitory concentration) of compounds were determined by fitting the data to the following nonlinear regression equation using GraphPad Prism 7.0 software: Y = Bottom + (Top - Bottom)/(1 + 10^(([…] - X) × Hill Slope)) where: X = log(compound concentration), Y = % inhibition.
Sequence of ALK kinase (Q9UM73 19-1620): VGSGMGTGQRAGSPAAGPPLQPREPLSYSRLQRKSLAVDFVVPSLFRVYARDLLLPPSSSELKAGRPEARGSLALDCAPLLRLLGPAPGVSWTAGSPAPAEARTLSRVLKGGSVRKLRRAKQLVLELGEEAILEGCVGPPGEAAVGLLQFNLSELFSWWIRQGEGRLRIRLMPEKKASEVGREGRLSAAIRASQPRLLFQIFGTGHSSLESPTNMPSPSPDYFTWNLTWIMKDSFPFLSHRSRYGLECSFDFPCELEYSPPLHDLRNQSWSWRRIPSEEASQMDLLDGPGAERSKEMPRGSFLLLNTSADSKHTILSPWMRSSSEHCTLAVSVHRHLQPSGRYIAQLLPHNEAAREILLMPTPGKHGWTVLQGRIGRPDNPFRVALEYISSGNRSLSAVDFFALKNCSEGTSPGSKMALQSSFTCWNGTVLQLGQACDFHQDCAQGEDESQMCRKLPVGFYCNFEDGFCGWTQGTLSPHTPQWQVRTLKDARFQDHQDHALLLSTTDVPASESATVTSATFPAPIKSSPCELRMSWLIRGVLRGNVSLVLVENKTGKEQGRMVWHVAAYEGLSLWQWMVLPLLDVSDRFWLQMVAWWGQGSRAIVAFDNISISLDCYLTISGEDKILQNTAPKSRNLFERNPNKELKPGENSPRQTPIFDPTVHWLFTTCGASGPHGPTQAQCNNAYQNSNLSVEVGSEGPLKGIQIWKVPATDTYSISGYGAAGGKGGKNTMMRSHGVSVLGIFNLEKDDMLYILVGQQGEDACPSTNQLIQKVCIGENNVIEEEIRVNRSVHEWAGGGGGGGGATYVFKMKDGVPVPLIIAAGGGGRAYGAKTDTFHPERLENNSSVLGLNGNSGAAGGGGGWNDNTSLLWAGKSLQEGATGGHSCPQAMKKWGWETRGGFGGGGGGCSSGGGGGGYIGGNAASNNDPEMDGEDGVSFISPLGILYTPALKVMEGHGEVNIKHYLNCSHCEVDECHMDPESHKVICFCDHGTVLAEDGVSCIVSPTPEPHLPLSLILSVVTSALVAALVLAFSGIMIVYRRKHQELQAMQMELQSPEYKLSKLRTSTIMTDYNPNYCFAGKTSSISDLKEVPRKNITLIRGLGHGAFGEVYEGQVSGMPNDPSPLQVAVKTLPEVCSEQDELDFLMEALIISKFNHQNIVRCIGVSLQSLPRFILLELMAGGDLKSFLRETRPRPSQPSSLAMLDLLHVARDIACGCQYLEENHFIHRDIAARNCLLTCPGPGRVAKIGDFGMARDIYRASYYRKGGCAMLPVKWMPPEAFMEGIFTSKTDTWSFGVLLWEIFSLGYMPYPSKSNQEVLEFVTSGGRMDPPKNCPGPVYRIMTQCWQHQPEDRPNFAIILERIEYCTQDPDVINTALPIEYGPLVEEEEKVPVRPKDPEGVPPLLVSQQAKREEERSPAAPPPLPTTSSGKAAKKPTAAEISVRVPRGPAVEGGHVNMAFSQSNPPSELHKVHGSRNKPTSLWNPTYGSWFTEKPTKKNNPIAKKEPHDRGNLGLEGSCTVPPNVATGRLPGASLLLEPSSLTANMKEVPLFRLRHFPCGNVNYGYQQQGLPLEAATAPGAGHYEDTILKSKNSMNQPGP

[2] abbreviates: Table 4, ATP 2 µM, read-out: ALK (IC50).

pIC50: −log10 of the molar value. Like-named read-outs stand apart in the source and are kept apart here.

Sequence of FAK kinase (Q05397 whole entry): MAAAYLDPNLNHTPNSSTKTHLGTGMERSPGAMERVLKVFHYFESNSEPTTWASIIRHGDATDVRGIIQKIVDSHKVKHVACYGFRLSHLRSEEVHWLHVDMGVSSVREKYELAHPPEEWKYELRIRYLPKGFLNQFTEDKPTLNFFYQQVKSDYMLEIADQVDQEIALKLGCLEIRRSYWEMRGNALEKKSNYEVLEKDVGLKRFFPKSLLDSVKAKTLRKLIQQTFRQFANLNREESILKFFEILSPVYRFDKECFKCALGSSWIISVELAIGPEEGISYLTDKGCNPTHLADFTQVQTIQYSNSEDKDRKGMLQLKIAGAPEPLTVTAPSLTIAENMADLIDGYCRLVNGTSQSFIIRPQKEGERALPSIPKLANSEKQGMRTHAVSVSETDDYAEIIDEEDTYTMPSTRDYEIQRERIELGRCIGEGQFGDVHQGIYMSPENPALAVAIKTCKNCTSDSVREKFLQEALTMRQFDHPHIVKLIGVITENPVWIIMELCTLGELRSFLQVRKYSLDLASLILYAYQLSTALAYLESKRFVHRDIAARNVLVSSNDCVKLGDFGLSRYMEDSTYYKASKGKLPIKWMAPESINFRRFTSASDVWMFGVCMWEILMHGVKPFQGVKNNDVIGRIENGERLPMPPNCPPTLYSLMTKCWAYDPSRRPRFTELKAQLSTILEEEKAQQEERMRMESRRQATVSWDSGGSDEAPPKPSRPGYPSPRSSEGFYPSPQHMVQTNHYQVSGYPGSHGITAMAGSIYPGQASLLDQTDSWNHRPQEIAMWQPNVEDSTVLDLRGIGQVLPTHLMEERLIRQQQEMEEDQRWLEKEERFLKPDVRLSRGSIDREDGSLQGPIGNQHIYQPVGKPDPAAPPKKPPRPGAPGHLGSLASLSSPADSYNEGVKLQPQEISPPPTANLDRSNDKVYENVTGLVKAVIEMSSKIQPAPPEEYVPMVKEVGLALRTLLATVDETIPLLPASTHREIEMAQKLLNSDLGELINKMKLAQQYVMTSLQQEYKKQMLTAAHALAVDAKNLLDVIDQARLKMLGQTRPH

On FAK kinase, `COc1cc2c(cc1Nc1ncc(Cl)c(Nc3ccccc3S(=O)(=O)C(C)C)n1)OC[C@@H]1CN(C3CCOCC3)CCN21` [Compound C1S] showed a pIC50 greater than 9.00. For the same compound, in data set [1], the AUC(0-t) at 24 h is 136 ng·h/mL, the Cmax came out at 61.8 ng/mL, the Tmax turned out to be 0.83 h and the half-life is 1.78 h.
Regarding `COc1cc2c(cc1Nc1ncc(Cl)c(Nc3ccccc3S(=O)(=O)C(C)C)n1)OC[C@@H]1CN(C3CCN(C)CC3)CCN21` [Compound C2S], the pIC50 against FAK kinase was greater than 9.00. For the same compound, in data set [1], the AUC(0-t) at 24 h is 1970 ng·h/mL, the peak level (Cmax) was 135 ng/mL, the Tmax was 10 h and the half-life is 9.2 h. Moreover, at ALK kinase, the pIC50 was greater than 10.30.
`CNC(=O)c1ccccc1Nc1cc(Nc2cc3c(cc2OC)N2CCN(C4CCN(C)CC4)C[C@@H]2CO3)ncc1C(F)(F)F` [Compound D2R]: the pIC50 was greater than 9.00 on FAK kinase and greater than 8.00 at ALK kinase.
As for `CNC(=O)c1ccccc1Nc1cc(Nc2cc3c(cc2OC)N2CCN(C4CCN(C)CC4)C[C@H]2CO3)ncc1C(F)(F)F` [Compound D2S], the pIC50 against FAK kinase is greater than 9.30. In data set [1], the area under the curve AUC(0-t) at 24 h was found to be 1470 ng·h/mL, the Cmax is 134 ng/mL, the Tmax amounted to 3.33 h and the half-life is 5.97 h. In addition, the pIC50 on ALK kinase (setting [2]) is greater than 7.82.
At FAK kinase, `CNC(=O)c1ccccc1Nc1cc(Nc2cc3c(cc2OC)N2CCN(C4CN(C)C4)C[C@H]2CO3)ncc1C(F)(F)F` [Compound D4S] gave a pIC50 greater than 9.00. Further, in data set [1], the AUC(0-t) at 24 h came out at 1660 ng·h/mL, the Cmax came out at 241 ng/mL, the Tmax was 5.33 h and the half-life was 3.03 h. In addition, the pIC50 on ALK kinase (setting [2]) was greater than 7.82.

As usually defined, the pIC50 is −log10 of the IC50, conventionally taken in molar units. By AUC(0-t) is commonly meant exposure summed from dosing to a finite time, without extrapolation to infinity. A low value points to low exposure. A word on the Cmax: it is the highest concentration seen after dosing. A word on the Tmax: it is the time from dosing to the highest level. The half-life is the time needed for the level to fall by half in the phase considered. Read a high half-life as slow loss.

(Values after patent publication EP4653444A1, “FUSED TRICYCLIC COMPOUND AS KINASE INHIBITOR” (Hangzhou Innogate Pharma Co., Ltd., priority 2023, dated 2024).)
